Results published in patent publication US5116846A, “N-aralkyl piperidine derivatives as psychotropic drugs” (priority 1990, dated 1992).

Columns and labels:
[1] = (+)-N-Allylnormetazocine-Induced Turning Behavior in Rats; assay type: in vivo, rat (male Sprague-Dawley); settings: test drug p.o. or s.c. 20 minutes before testing; (+)-N-allylnormetazocine 4.0 mg/kg s.c.; class symbols not defined
Description: (+)-N-Allylnormetazocine-Induced Turning Behavior in Rats
Male Sprague-Dawley rats (CDlCR, Charles River), weighing 190-290 g, were used for surgery. In order to spare […] neurons, rats were injected with 25 mg/kg imipramine i.p. 30 minutes before surgery. The rats were anesthetized with a 1:1.2 ratio mixture of Xylazine:Ketamine given 0.1 mL/100 g body weight i.m. A Ringers-Wydaze (100:0.01) solution was given to prevent dehydration. Dopamine was depleted in the right striatum by injecting the neurotoxin 6-hydroxydopamine (6-OHDA) into the substantia nigra of the right cerebral hemisphere. Five mg of 6-OHDA was dissolved in 5 mL of a 0.04% ascorbic acid solution which had been deoxygenated with nitrogen. Five μL of the 6-OHDA solution was injected into the substantia nigra through a 26 gauge needle over a five minute period. […]
Rotation rate and direction were determined with Coulbourn Instruments Rotometry Monitors. Clockwise and counter clockwise rotations were recorded at 30 and 60 minute intervals. […]
The data were analyzed with an analysis of variance statistical test and individual comparisons of each dose of test drug to control were made with Dunnett's multiple range test. The ED50 was calculated with a Litchfield and Wilcoxon test using percent of control values. […]

[2] = Isolation-Induced Aggression in Mice; assay type: in vivo, mouse (male Balb/c)
Description: Male Balb/c mice (Charles River) were used. […] Isolated mice failing to consistently attack an intruder were eliminated from the colony.
Drug testing was carried out by treating the isolated mice with test drugs or standards. Fifteen minutes after dosing with test drugs by the oral route, one isolated mouse was removed from its home cage and placed in the home cage of another isolate. Scoring was a yes or no response for each pair. A maximum of 3 minutes was allowed for an attack and the pair was separated immediately upon an attack. Selection of home cage and intruder mice was randomized for each test. Mice were treated and tested twice a week with at least a 2 day washout period between treatments.

sigma receptor = settings: Tam, Eur. Pharmacol, 109:33-41 (1985); cited from earlier work

| Compound | Inhibition of (+)-N-Allylnormetazocine Induced Turning [1] | Inhibition of Isolation-induced Aggression ([2]; oral, fifteen minutes after dosing, class symbols not defined) | Inhibition of Isolation-induced Aggression ([2]; po) | affinity for the sigma receptor (sigma receptor) |
| --- | --- | --- | --- | --- |
| O=C(CCCN1CCC(O)(c2ccc(Cl)cc2)CC1)c1ccc(F)cc1 [Haloperidol, haloperidol] | potently antagonized | potent activities in inhibiting the isolation-induced aggressive behavior | +++ | – |
| c1ccc(C2(N3CCCCC3)CCCCC2)cc1 [PCP, phencyclidine] | – | – | – | significant affinity for the sigma receptor |
